Reference: paper PMC5855630, “The Design and Development of Potent Small Molecules as Anticancer Agents Targeting EGFR TK and Tubulin Polymerization” (International Journal of Molecular Sciences, 2018)
Values joined by “and” are separate entries in the source; they are usually repeats but may differ in a detail not shown here. Equal values may be shown once.

Legend:
[1] = tested on: MCF-7 breast cancer cell line; experiment: MTT cancer cell antiproliferative assay, MCF-7; type: cell-based; conditions: Homo sapiens, MCF7, 24 h treatment
Description: (§1) The newly synthesized compounds 4a–e, 6a–c and 9a–d were evaluated for their in vitro anticancer activity against two breast cancer cell lines; Michigan cancer foundation-7 (MCF-7) and M.D. Anderson metastasis breast cancer-231 (MDA-MB-231) according to (3-(4,5-dimethylthiazole-2-yl)-2,5-diphenyltetrazolium bromide) tetrazolium (MTT) assay method by using erlotinib as positive tyrosine kinase (TK) drug.
(§2) The in vitro anticancer activities of the target compounds against two breast cancer cell lines; luminal human breast adenocarcinoma (estrogen-receptor (ER) and progesterone-receptor (PR)) positive MCF-7 and negative human breast cancer (MDA-MB-231) cell lines were evaluated as described with some modifications. Cell line cells were obtained from American Type Culture Collection, cells was cultured using DMEM (Invitrogen Life Technologies, Waltham, MA, USA) supplemented with 10% FBS (Hyclone, Logan, UT, USA), 10 µg/mL of insulin (Sigma, St. Louis, MO, USA), and 1% penicillin-streptomycin. All of the other chemical sand reagents were from (Sigma, St. Louis, MO, USA). The cells […] were sub-cultured into a 96-well plate with […] per well in medium, at 37 °C, 5% CO2 and 95% air atmosphere, before being treated with or without various concentrations of test compounds, each in triplicate for 24 h. At the end of the incubation, the cells were harvested and washed with PBS. 20 µL of MTT was added to each well and incubated for 2 h before 200 µL DMSO was added. The absorbance was measured on an ELISA reader (Multiskan EX, Lab systems, Waltham, MA, USA) at a test wavelength of 570 nm.

MDA-MB-231 cells = experiment: Annexin V-FITC apoptosis analysis; type: cell-based, human; conditions: IC50 concentration, 48 h
Source text: Apoptosis induction was examined in treated MDA-MB-231 cells by use of an Annexin V-fluorescine isothiocyanate (FITC) (Abcam, Milton, Cambridge, UK). The treatment of the cells with target compound (6c) and erlotinib drug with antiproliferative detected concentrations have been applied for comparison. […] The apoptosis-inducing effect of target compound was investigated by flow cytometric analysis of MDA-MB-231 cells stained with Annexin V and propidium iodide. […] This might be extra behavior interpreting the potent cytotoxic effect of such compounds.
This analysis was performed following the reported procedures.

[2] = tested on: MDA-MB-231 breast cancer cell line; experiment: MTT cancer cell antiproliferative assay, MDA-MB-231; type: cell-based, human; conditions: 24 h treatment
Description: as §1, §2

[3] = target: tubulin polymerization (Tubulin Beta, Tubb) (Homo sapiens, UniProt P07437+P68363); experiment: Tubulin polymerization inhibition (ELISA for Tubulin Beta); type: biochemical
tubulin polymerization (Tubulin Beta, Tubb), sequence (P07437 whole entry): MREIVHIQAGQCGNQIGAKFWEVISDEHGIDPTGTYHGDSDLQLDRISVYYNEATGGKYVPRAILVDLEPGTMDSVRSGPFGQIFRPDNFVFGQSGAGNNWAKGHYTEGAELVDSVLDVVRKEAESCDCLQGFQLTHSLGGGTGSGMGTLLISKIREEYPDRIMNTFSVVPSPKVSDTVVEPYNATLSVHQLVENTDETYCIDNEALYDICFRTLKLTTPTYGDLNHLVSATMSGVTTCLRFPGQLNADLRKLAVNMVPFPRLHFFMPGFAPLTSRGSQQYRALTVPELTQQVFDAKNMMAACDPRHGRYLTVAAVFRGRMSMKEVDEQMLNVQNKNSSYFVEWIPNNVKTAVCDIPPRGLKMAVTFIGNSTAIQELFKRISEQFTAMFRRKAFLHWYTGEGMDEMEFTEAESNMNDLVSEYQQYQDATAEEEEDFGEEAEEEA
tubulin polymerization (Tubulin Beta, Tubb), sequence (P68363 whole entry): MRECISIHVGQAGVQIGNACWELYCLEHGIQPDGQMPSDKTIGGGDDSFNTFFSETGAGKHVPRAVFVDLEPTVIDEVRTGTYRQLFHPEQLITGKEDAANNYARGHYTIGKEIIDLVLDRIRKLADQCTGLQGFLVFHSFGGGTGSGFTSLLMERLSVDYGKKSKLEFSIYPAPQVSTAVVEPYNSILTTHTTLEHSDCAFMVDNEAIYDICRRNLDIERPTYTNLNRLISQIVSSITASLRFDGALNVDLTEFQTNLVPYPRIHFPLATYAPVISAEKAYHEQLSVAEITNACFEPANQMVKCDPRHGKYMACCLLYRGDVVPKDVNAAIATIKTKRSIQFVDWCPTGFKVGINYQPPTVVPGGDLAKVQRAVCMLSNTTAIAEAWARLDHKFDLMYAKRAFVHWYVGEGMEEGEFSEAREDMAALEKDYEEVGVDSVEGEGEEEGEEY
Source text: Microtubule-targeting agents affect microtubule function and stop mitosis, resulting in necrosis and apoptosis and eventually cell death.
This assay was done according to reported procedures

[4] = target: T1, epidermal growth factor receptor (EGFR) tyrosine kinase (TK) (Homo sapiens, UniProt P00533); experiment: EGFR TK inhibition assay (HT Scan EGFR kinase assay kit); type: biochemical; conditions: GST-EGFR protein, 400 μM ATP
T1 construct: purchased Cell Signaling Technology
T1 sequence (P00533 25-1210): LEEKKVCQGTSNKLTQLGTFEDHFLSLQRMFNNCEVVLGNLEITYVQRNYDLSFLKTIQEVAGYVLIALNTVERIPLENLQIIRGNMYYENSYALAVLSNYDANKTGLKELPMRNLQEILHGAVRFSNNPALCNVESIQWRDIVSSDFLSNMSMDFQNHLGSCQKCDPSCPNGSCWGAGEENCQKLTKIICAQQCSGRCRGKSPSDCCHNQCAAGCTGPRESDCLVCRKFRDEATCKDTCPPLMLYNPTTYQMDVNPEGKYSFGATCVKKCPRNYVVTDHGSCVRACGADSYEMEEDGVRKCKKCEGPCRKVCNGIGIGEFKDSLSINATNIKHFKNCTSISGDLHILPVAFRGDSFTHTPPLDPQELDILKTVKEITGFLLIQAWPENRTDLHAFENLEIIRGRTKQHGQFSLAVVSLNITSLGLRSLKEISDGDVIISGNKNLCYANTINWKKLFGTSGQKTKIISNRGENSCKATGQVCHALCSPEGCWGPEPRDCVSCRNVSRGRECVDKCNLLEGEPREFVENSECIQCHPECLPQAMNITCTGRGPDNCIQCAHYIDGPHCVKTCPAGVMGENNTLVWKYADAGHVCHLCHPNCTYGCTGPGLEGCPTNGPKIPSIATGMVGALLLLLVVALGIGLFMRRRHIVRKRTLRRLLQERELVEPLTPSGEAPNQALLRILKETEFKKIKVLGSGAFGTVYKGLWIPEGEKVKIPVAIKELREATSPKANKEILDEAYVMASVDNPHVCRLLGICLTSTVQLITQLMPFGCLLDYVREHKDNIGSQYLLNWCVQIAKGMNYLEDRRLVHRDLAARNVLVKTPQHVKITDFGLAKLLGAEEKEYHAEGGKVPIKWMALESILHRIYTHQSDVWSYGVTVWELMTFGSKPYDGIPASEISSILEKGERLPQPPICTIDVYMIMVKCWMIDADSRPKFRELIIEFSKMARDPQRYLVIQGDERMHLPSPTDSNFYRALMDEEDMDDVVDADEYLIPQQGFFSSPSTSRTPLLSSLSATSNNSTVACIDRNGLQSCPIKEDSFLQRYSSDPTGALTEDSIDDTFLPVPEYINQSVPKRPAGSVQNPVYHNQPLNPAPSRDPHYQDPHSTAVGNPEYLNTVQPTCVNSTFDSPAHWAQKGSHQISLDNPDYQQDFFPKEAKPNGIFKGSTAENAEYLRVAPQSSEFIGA
Description: The compound (4b) bears flexible benzylamine terminal moiety, while the (6a) and (6c) derivatives bear sulphonamide moieties and 9a–b with Schiff fragments.
EGFR kinase activity was measured by HT Scan EGFR kinase assay kits (Cell Signaling Technology, Danvers, MA, USA). The experiments were done following the manufacturer’s directions. […] Strapavidin-coated 96-well plates was used to take phosphorylated substrate. Anti-phosphotyrosine and europium-labeled secondary antibodies (DELFIA, Perkin-Elmer, Akron, OH, USA) was used to monitor the level of phosphorylation. At the end of the assay, the enrichment solution was added and enzyme activity was assessed in the Wallac Victor II 1420 micro-plate reader (Abcam, Milton, Cambridge, UK) and […].

## C#Cc1cccc(Nc2ncnc3cc(OCCOC)c(OCCOC)cc23)c1 [Erlotinib, reference compound]
[1]
  IC50: 0.45 ± 0.08 nM
MDA-MB-231 cells
  Apoptosis induction (Annexin V / propidium iodide flow cytometry): accumulation of apoptotic cells
[2]; Homo sapiens, MDA-MB-231, 24 h
  IC50: 3.74 ± 0.01 nM

## COC(=O)c1ccccc1NC(=O)c1ccco1 [Compound 2, Methyl 2-(Furan-2-carboxamido)benzoate]
[1]
  IC50: 2.43 ± 0.2 nM
other
  melting point: 190 to 192 °C
[2]; Homo sapiens, MDA-MB-231, 24 h
  IC50: 1.21 ± 0.25 nM

## NS(=O)(=O)c1ccc(NC(=O)c2ccccc2NC(=O)c2ccco2)cc1 [Compound 6a, N-{2-[(4-Sulfamoylphenyl)carbamoyl]phenyl}furan-2-carboxamide]
[3]
  IC50: 87.6 ± 0.13 nM
[1]
  IC50: 0.62 ± 0.12 nM
other
  melting point: 188 to 189 °C
[4]
  IC50: 85.4 ± 0.32 nM
[2]; Homo sapiens, MDA-MB-231, 24 h
  IC50: 0.66 ± 0.11 nM

## NNC(=O)c1ccccc1NC(=O)c1ccco1 [Compound 7, N-[2-(Hydrazinecarbonyl)phenyl]furan-2-carboxamide]
[1]
  IC50: 1.91 ± 0.11 nM
other
  melting point: 210 to 212 °C
[2]; Homo sapiens, MDA-MB-231, 24 h
  IC50: 35.85 ± 0.12 nM

## Cc1ccc(CNC(=O)c2ccccc2NC(=O)c2ccco2)cc1 [Compound 4e, N-{2-[(4-Methylbenzyl)carbamoyl]phenyl}furan-2-carboxamide]
[1]
  IC50: 0.88 ± 0.25 nM
other
  melting point: 175 to 178 °C
[2]; Homo sapiens, MDA-MB-231, 24 h
  IC50: 5.59 ± 0.2 nM

## O=C(Nc1ccccc1C(=O)N/N=C/c1ccccc1)c1ccco1 [Compound 9a, (E)-N-{2-[(2-Benzylidenehydrazine)-1-carbonyl]phenyl}furan-2-carboxamide]
[3]
  IC50: 410.6 ± 0.12 nM
[1]
  IC50: 0.51 ± 0.16 nM
other
  melting point: 205 to 207 °C
[4]
  IC50: 59.3 ± 0.11 nM
[2]; Homo sapiens, MDA-MB-231, 24 h
  IC50: 0.68 ± 0.02 nM

## O=C(Nc1ccccc1C(=O)N/N=C/c1ccccn1)c1ccco1 [Compound 9c, (E)-N-{2-[2-(Pyridin-2-ylmethylene)hydrazine-1-carbonyl]phenyl}furan-2-carboxamide]
[1]
  IC50: 0.15 ± 0.15 nM
[2]; Homo sapiens, MDA-MB-231, 24 h
  IC50: 14.8 ± 0.2 nM

## COc1ccc(CNC(=O)c2ccccc2NC(=O)c2ccco2)cc1 [Compound 4b, N-{2-[(4-Methoxybenzyl)carbamoyl]phenyl}furan-2-carboxamide]
[3]
  IC50: 140.8 ± 0.15 nM
[1]
  IC50: 0.45 ± 0.12 nM
other
  melting point: 207 to 209 °C
[4]
  IC50: 31 nM and 30.5 nM
[2]; Homo sapiens, MDA-MB-231, 24 h
  IC50: 0.76 ± 0.11 nM

## O=C(Nc1ccccc1C(=O)NCc1ccccc1)c1ccco1 [Compound 4a]
[1]
  IC50: 3.35 ± 0.11 nM
other
  melting point: 230 to 232 °C
[2]; Homo sapiens, MDA-MB-231, 24 h
  IC50: 8.82 ± 0.14 nM

## O=C(Nc1ccccc1C(=O)NCc1ccc(F)cc1)c1ccco1 [Compound 4c, N-{2-[(4-Fluorobenzyl)carbamoyl]phenyl}furan-2-carboxamide]
[1]
  IC50: 2.59 ± 0.32 nM
other
  melting point: 218 to 220 °C
[2]; Homo sapiens, MDA-MB-231, 24 h
  IC50: 3.11 ± 0.5 nM

## O=C(Nc1ccccc1C(=O)NCc1ccc(Cl)cc1)c1ccco1 [Compound 4d, N-{2-[(4-Chlorobenzyl)carbamoyl]phenyl}furan-2-carboxamide]
[1]
  IC50: 0.64 ± 0.25 nM
other
  melting point: 213 to 215 °C
[2]; Homo sapiens, MDA-MB-231, 24 h
  IC50: 3.29 ± 0.14 nM

## O=C(Nc1ccccc1C(=O)Nc1ccc(S(=O)(=O)Nc2nccs2)cc1)c1ccco1 [Compound 6c, N-{2-[(4-(N-(Thiazol-2-Yl)sulfamoyl)phenyl)carbamoyl]phenyl}furan-2-carboxamide]
[3]
  IC50: 155 ± 0.25 nM
[1]
  IC50: 0.34 ± 0.2 nM
[4]
  IC50: 110 ± 0.14 nM
MDA-MB-231 cells
  Apoptosis induction (Annexin V / propidium iodide flow cytometry): accumulation of apoptotic cells
[2]
  IC50: 0.32 ± 0.21 nM
[2]; Homo sapiens, MDA-MB-231, 24 h
  IC50: 0.4 nM

## O=C(Nc1ccccc1C(=O)N/N=C/c1ccc(O)cc1O)c1ccco1 [Compound 9b, (E)-N-{2-[2-(2,4-Dihydroxybenzylidene)hydrazine-1-carbonyl]phenyl}furan-2-carboxamide]
[3]
  IC50: 108.4 ± 0.14 nM
[1]
  IC50: 0.78 ± 0.11 nM
[4]
  IC50: 31 nM and 31.2 nM
[2]; Homo sapiens, MDA-MB-231, 24 h
  IC50: 0.48 ± 0.01 nM

## O=C(Nc1ccccc1C(=O)N/N=C/c1ccc(Cl)cc1Cl)c1ccco1 [Compound 9d, (E)-N-{2-[2-(2,4-Dichlorobenzylidene)hydrazine-1-carbonyl]phenyl}furan-2-carboxamide]
[1]
  IC50: 0.48 ± 0.14 nM
other
  melting point: 212 to 214 °C
[2]; Homo sapiens, MDA-MB-231, 24 h
  IC50: 2.53 ± 0.12 nM

## O=C(Nc1ccccc1C(=O)Nc1ccc(S(=O)(=O)Nc2ccccn2)cc1)c1ccco1 [Compound 6b, N-{2-[(4-(N-(Pyridin-2-Yl)sulfamoyl]phenyl)carbamoyl)phenyl}furan-2-carboxamide]
[1]
  IC50: 0.065 nM
other
  melting point: 209 to 211 °C
[2]; Homo sapiens, MDA-MB-231, 24 h
  IC50: 4.45 ± 0.3 nM
